The source of these data is patent publication US20100056536A1, “METHOD OF TREATING ATRIAL FIBRILLATION” (priority 2008, published 2010).

For data set [1], the system named is canine isolated coronary artery-perfused right atrial preparations. The experiment in a line: Electrophysiology (APD90, sodium channel-dependent parameters) in isolated coronary artery-perfused atrial preparations. Conditions: for effect on action potential duration (APD90) in atria, in words: ranolazine 1 to 10 μmol/L, lidocaine 2.1 to 21 μmol/L.
Experimental: (§4) Experiments were performed using isolated arterially perfused canine right atrial preparations and left ventricular arterially perfused wedge preparations (Antzelevitch et al. Circulation. 2004;110:904-910, Burashnikov et al. Am J Physiol. 2004;286:H2393-H2400., and Burashnikov et al. Circulation. 2003;107:2355-2360.) Therapeutic plasma concentrations of ranolazine (1-10 μM), lidocaine (2.1-21 μM), and propafenone (0.3-3.0 μM) were examined.
(§5) Sodium channel-mediated parameters, such as the maximum rate of rise of the AP upstroke (Vmax), conduction velocity (CV), diastolic threshold of excitation (DTE), and post-repolarization refractoriness (PRR) were evaluated. PRR was defined as the difference between action potential duration (APD) and atrial effective refractory period (ERP).
Data set [2] relates to canine superfused PV sleeve preparations. The data set is described as follows: Action potential recording in superfused pulmonary vein (PV) sleeve preparations. Format: cell-based. The method, then: Action potentials (AP) were recorded from canine superfused PV sleeves using microelectrode techniques. Acetylcholine (ACh, 1 μM), isoproterenol (Iso, 1 μM), or their combination was used to induce EADs, DADs, and triggered activity.

Data set [3] relates to canine left ventricular arterially perfused wedge preparations. The experiment in a line: Electrophysiology (APD90, sodium channel-dependent parameters) in arterially perfused ventricular wedge preparations. Conditions: for DTE (% Δ) Ventricles, diastolic threshold of excitation: ranolazine 10 μM, lidocaine 21 μM, propafenone 1.5 μM; for effect on APD90 in ventricular myocardium, in words: ranolazine 1 to 10 μmol/L, lidocaine 2.1 to 21 μmol/L.
Experimental: as §4, §5

For data set [4], the system named is arterially-perfused right atrial preparations. The data set is described as follows: Transmembrane action potentials in arterially-perfused right atrial preparations (Example 4). Conditions: for action potential duration of pectinate muscle (PM-APD75): untreated 154±11.
Text: Floating microelectrode techniques were used to record transmembrane action potentials (BCL=500 ms).
Data set [5] relates to acetylcholine-mediated AF in coronary artery-perfused right atrial preparations. The data set is described as follows: Acetylcholine-mediated persistent AF in coronary artery-perfused right atrial preparations. Conditions: for Termination of AF (share of preparations): acetylcholine (0.5 μM) persistent AF, ranolazine 10.0 μM, lidocaine 21.0 μM, propafenone 1.5-3.0 μM.
Data set [6] has as its target T1, peak sodium channel current (INa) in canine atrial myocytes (Canis lupus familiaris, UniProt Q865W3).
T1 construct: Whole-cell peak sodium currents were recorded at 37° C. in low-sodium external solution from myocytes isolated; endogenous in cells; host or cells: myocytes isolated from right atrium and left ventricle of adult mongrel dogs
The experiment in a line: Whole-cell patch clamp, steady-state inactivation of sodium current in atrial myocytes. The class given is cell-based. Conditions: 15 μM ranolazine, n=5, before drug −86.35±0.19. Here is the method: (§1) FIG. 1 presents the voltage dependence of activation and steady-state inactivation of sodium current in canine atrial versus ventricular myocytes. (A) Current-voltage relationship for sodium current in ventricular and atrial myocytes. […] (B) Summarized steady-state inactivation curves. […] Insets show representative atrial and ventricular traces after 1-s conditioning pulses to the indicated potentials. (C) Steady-state inactivation curves before and after addition of 15 μM ranolazine.
(§2) The electrophysiological effects of therapeutic concentrations of ranolazine (1 to 10μmol/L) and lidocaine (2.1 to 21 μmol/L) were evaluated in canine isolated coronary-perfused atrial and ventricular preparations.
(§3) Whole-cell peak sodium currents were recorded at 37° C. in low-sodium external solution from myocytes isolated from the right atrium and left ventricle (LV) of adult mongrel dogs.
For orientation: Patch clamp records ionic current or voltage across a cell membrane.

The subject of data set [7] is ventricular Purkinje fibers and M cell preparations. The following applies: paced at a CL of 500 ms; read-out: IC50 for suppression of Vmax; cited from earlier work.
Another data set concerns Purkinje fibers. The experiment in a line: Action potential duration in Purkinje fibers. Format: cell-based, canine. Conditions: ranolazine 1 to 10 μmol/L. The method, then: as §2
For another data set, the target named is T2, peak INa (Canis lupus familiaris, UniProt Q865W3).
T2 construct: […]; host or cells: canine ventricular myocytes
Conditions: canine ventricular myocytes; read-out: IC50 for inhibition of peak INa; cited from earlier work.

The target of data set [8] is T3, rapidly activating delayed rectifier potassium current (IKr) (Canis lupus familiaris, UniProt Q9TSZ3).
T3 sequence (Q9TSZ3 1-1158): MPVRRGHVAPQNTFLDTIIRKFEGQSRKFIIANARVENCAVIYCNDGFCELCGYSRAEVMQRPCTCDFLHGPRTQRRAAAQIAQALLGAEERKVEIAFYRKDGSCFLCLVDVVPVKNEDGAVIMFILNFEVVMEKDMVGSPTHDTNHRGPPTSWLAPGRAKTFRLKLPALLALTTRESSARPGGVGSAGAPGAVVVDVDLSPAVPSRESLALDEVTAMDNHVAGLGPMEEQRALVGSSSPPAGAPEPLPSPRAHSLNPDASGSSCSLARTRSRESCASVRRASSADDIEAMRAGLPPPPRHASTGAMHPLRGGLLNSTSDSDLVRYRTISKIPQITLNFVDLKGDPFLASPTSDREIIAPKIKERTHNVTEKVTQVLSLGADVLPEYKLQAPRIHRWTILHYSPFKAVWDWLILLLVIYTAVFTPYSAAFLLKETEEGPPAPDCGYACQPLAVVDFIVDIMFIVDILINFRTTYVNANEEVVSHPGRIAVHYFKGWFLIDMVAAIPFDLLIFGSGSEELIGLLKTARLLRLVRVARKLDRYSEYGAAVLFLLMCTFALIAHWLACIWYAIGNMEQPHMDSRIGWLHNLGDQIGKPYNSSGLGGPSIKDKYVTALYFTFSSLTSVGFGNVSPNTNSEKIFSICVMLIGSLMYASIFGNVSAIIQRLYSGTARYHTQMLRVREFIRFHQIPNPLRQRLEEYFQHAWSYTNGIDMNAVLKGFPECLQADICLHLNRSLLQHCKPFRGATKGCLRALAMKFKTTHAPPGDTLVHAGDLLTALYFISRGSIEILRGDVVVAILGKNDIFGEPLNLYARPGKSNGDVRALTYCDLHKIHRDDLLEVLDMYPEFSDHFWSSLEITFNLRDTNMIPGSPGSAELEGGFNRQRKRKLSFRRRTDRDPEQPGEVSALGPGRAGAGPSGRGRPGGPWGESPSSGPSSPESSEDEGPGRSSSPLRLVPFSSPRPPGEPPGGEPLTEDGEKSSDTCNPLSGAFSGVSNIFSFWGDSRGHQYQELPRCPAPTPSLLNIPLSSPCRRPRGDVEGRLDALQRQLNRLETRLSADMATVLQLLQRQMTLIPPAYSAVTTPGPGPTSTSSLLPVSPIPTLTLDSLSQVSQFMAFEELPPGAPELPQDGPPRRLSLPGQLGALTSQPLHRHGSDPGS
Conditions: read-out: IC50 for block of IKr; cited from earlier work.

The target of data set [9] is T4, peak sodium channel current (INa) in canine ventricular myocytes (Canis lupus familiaris, UniProt Q865W3).
T4 construct: Whole-cell peak sodium currents were recorded at 37° C. in low-sodium external solution from myocytes isolated; endogenous in cells; host or cells: myocytes isolated from right atrium and left ventricle of adult mongrel dogs
The experiment in a line: Whole-cell patch clamp, steady-state inactivation of sodium current in ventricular myocytes. The class given is cell-based. Conditions: 15 μM ranolazine, before drug −72.53±0.16. The method, then:
as §1, §2, §3

Data set [10] relates to self-terminating AF in atria exposed to ischemia and β-adrenergic agonists. The data set is described as follows: AF induced by ischemia and β-adrenergic agonists in atria. The class given is cell-based, canine. Conditions: ranolazine 5-10 μM. The source says: Ischemia/reperfusion coupled with iso-proterenol mimics the conditions that prevail during acute myocardial infarction or the substrate encountered postsurgically.

In another data set the target is T5, late INa (Canis lupus familiaris, UniProt Q865W3).
T5 construct: host or cells: canine ventricular myocytes
The following applies: canine ventricular myocytes; read-out: IC50 for inhibition of late INa; cited from earlier work.

The mark [11] stands for this setting: drug alone: chronic Amio (6 weeks, 40 mg/kg daily) PV sleeves, or 10 μM ranolazine in untreated controls, untreated 124 ms.
Setting [12] is: drug alone: chronic AMIO (40 mg/kg daily for 6 weeks) or acute ranolazine 5 μM in untreated atria, BCL=500 ms.
[13] abbreviates: drug alone: chronic AMIO (40 mg/kg daily for 6 weeks) or acute ranolazine 5 μM in untreated atria, BCL=500 ms, untreated 158±18.
Setting [14] is: acute ranolazine 5 μM in chronic AMIO treated atria, BCL=500 ms.

Some results are limits rather than exact numbers.

In the case of `CCCCc1oc2ccccc2c1C(=O)c1cc(I)c(OCCN(CC)CC)c(I)c1` [Chronic Amiodarone, amiodarone], the “prolongation of APD90 in atria” value in data set [1] (CL=500 ms) is on record as 22%. In addition, the “maximal rate of rise of AP upstroke (Vmax)” value in [2] (PV sleeves from dogs treated with chronic Amio (6 weeks, 40 mg/kg daily), CL 1000 ms, untreated controls 314±79) was found to be 115±89 V/s. For the same compound, the “average CL at which 2:1 activation failure developed” value in data set [2] (setting [11]) worked out at 420 ms. For the same compound, the “change (prolongation) of APD90 in ventricles” value (“change (prolongation) of APD90” for short) in data set [3] (CL=500 ms) amounted to 12%. Also, the “action potential duration of pectinate muscle (PM-APD75)” value in [4] (setting [12]) is 183 ± 7 ms. For the same compound, the “effective refractory period (ERP)” value in data set [4] (setting [13]) was 222 ± 12 ms. The “atria in which persistent acetylcholine-mediated AF could be induced” value in data set [5] (atria isolated from dogs chronically treated, versus 10 of 10 untreated atria) was 1 of 6.

For the compound `COc1ccccc1OCC(O)CN1CCN(CC(=O)Nc2c(C)cccc2C)CC1` (racemic) [Ranolazine, (±)-N-(2,6-dimethylphenyl)-4-[2-hydroxy-3-(2-methoxyphenoxy)-propyl]-1-piperazineacetamide], the results for the “half-inactivation voltage (V0.5) of steady-state inactivation after ranolazine” value in data set [6] and in data set [9] were −91.38±0.35 mV and −74.81±0.14 mV, respectively. Besides, the concentration for half-maximal inhibition (IC50) in [7] was above 100 µM; at peak INa, 294 µM; in data set [8] it was 12 µM; on late INa, 6 µM. Moreover, the “atrial selectivity of depression of sodium channel-dependent parameters (atria versus ventricles), in words” value in [1] is on record as “striking atrial selectivity”. Moreover, the “prolongation of APD90 in atria” value in [1] (CL=500 ms) is given as 11%. In addition, the “effect on action potential duration (APD90) in atria, in words” value in data set [1] is recorded as “prolongation”. Also, the “effect on APD90 in Purkinje fibers, in words” value in the data set with Purkinje fibers is recorded as “abbreviation”. In addition, the “average CL at which 2:1 activation failure developed” value in data set [2] (5 μM RAN superfused on chronic Amio PV sleeves, n=5) stood at 1350 ms; in data set [2] (10 μM RAN superfused on chronic Amio PV sleeves, n=5), 1660 ms; in data set [2] (setting [11]), 190 ms. Also, the “late phase 3 EAD- and DAD-induced triggered activity” value in [2] (RAN 5-10 μM added to chronic Amio PV sleeves, Iso and/or ACh, rapid pacing) is “completely eliminated”. Further, the “change (prolongation) of APD90” value in data set [3] (CL=500 ms) was “+2%”. Further, the results for the “DTE (% Δ) Ventricles, diastolic threshold of excitation” value (shortened to “DTE (% Δ) Ventricles”) in data set [3] (pacing cycle length 0.3 s) and in data set [3] (pacing cycle length 0.5 s) were 8% and “+3%”, respectively. Moreover, the “effect on APD90 in ventricular myocardium, in words” value in data set [3] is “no effect”. Besides, the “action potential duration APD75” value in [4] (setting [14]) is 189 ± 9 ms. In addition, the “effective refractory period (ERP)” value is 258 ± 50 ms in data set [4] (setting [14]) and 190 ± 24 ms in data set [4] (setting [13]). The “action potential duration of pectinate muscle (PM-APD75)” value in data set [4] (setting [12]) was 159 ± 9 ms. The “shortest pacing CL permitting 1:1 response” value in data set [4] (in presence of acetylcholine (ACh), control 71±12) was found to be 94 ± 31 ms. In addition, in data set [4] (without acetylcholine, control 129±8), the “shortest pacing CL permitting a 1:1 response” value came to 234 ± 49 ms. Further, the “atria in which induction of AF was prevented” value in [10] is given as 4 of 5. Also, the “Termination of AF (share of preparations)” value (“Termination of AF” below) in data set [5] is given as 66% (4/6).

Take `CCN(CC)CC(=O)Nc1c(C)cccc1C` [Lidocaine, lidocaine]: the “atrial selectivity of depression of sodium channel-dependent parameters (atria versus ventricles), in words” value in data set [1] is recorded as “much less atrial-selective than ranolazine or chronic amiodarone”. Moreover, the “abbreviation of APD90 in atria” value in data set [1] (CL=500 ms) is recorded as 6%. Further, in [1], the “effect on action potential duration (APD90) in atria, in words” value is “abbreviated”. Also, in [3] (CL=500 ms), the “abbreviation of APD90 in ventricles” value was found to be 9%. Moreover, the “DTE (% Δ) Ventricles” value was 40% in data set [3] (pacing cycle length 0.3 s) and “+8%” in data set [3] (pacing cycle length 0.5 s). In addition, the “effect on APD90 in ventricular myocardium, in words” value in data set [3] is on record as “abbreviated”. For the same compound, in [5], the “Termination of AF” value is 33% (2/6).

`CCCNCC(O)COc1ccccc1C(=O)CCc1ccccc1` (stereo not shown) [Propafenone, propafenone]: the “prolongation of APD90 in atria” value in [1] (CL=500 ms) came out at 13%. Moreover, the “change (prolongation) of APD90” value in data set [3] (CL=500 ms) is recorded as “+3%”. For the same compound, the “DTE (% Δ) Ventricles” value in [3] (pacing cycle length 0.3 s) is given as 125%; in [3] (pacing cycle length 0.5 s) it was “+84%”. For the same compound, the “Termination of AF” value in data set [5] is 100% (7/7).

Broadly, the IC50 is the concentration needed to halve the response being measured.
